Data on 35 compounds can be found in patent publication US7365211B2, “Heterocyclic GABAA subtype selective receptor modulators” (Roche Palo Alto LLC, priority 2003, dated 2008).

“And” between values parts separate entries of the source, which are not always exact repeats. Equal entries are not always repeated. Structures can show the parent of a compound that is named as a salt.

In the first data set the target is T1, GABAA α2β3γ2 (Homo sapiens, UniProt P18507+P28472+P47869).
T1 construct: expressed in transfected cells; host or cells: HEK293
As to the kind of experiment: 35S-TBPS binding assay (competition), HEK293 membranes with GABAA α2β3γ2 construct. The note with it: 35S-TBPS (5 nM) competition, GABA 1 μM, 2 hours at room temperature, read-out: pIC50 α2β3γ2 (converted). How it is done: (§1) The binding assay is based on the assay reported by K. Gee et al., Eur. J. Pharmacol. 1987 136:419-423.
(§2) Homogenate preparation: Membrane preparations of HEK293 cells containing either GABAA α1β2γ2 or GABAA α2β3γ2 constructs were performed according to a modified procedure previously described by Gee et al. (supra). Whole HEK 293 cells in D-PBS (calcium/magnesium free) buffer adjusted to pH 7.4 were centrifuged at 7,280×g for 20 m. After discarding the supernatant, the pellet was resuspended in the buffer and centrifuged at 1,820×g for 10 m. Afterwards, the supernatant was discarded and the pellet resuspended in ice-cold preparation buffer (50 mM Tris HCl pH 7.4, 4° C. and 150 mM KCl), homogenized for 30 sec using a Brinkmann Polytron PT3000 (setting 6) and centrifuged at 48,000×g for 30 m at 4° C. The centrifugation and homogenization procedure was repeated two more times for a total of 3 times before resuspending the membranes at a final protein concentration of 0.5 mg/mL. Aliquots (30 mL) of the final membrane preparation were then centrifuged at 48,000×g for 30 m, and the resulting pellets were stored at −80° C. until required.
(§3) 35S-TBPS binding assay. Membrane pellets containing either GABAA α1β2γ2 or GABAA α2β3γ2 constructs were thawed on ice, resuspended in 10 mL of 50 mM Tris HCl pH 7.4, 4° C. and 150 mM KCl and centrifuged at 48,000×g, 30 m at 4° C. After discarding the supernatant, the pellet was resuspended in 30 mL incubation buffer (50 mM Tris HCl pH 7.4, 25° C. and 150 mM KCl) at approximately 0.5 mg/mL protein concentration. In ^35S-TBPS competition studies, HEK293 membranes were incubated with ^35S-TBPS (5 nM final) and GABA (1 μM) in the absence or presence of competitor at concentrations ranging from 0.01 nM to 10 μM in 125 μL incubation buffer for 2 hours at room temperature (˜22° C.). Non-specific binding was assayed with picrotoxin (100 μM final concentration). […] Measurement of bound radioactivity was performed using a Packard Microplate 96 well topcount scintillation counter. […]
On to `Cc1c2cccc(-c3ccc(Cl)cc3Cl)c2nn1C` [A14, 7-(2,4-Dichloro-phenyl)-2,3-dimethyl-2H-indazole; hydrochloride], for which the IC50 was 30.9 nM.

With `C=Cc1c2cccc(-c3ccc(Cl)cc3Cl)c2nn1C` [A17, 7-(2,4-Dichloro-phenyl)-2-methyl-3-vinyl-2H-indazole], the IC50 was 26.3 nM.

For the compound `Cn1nc2c(-c3ccc(Cl)cc3Cl)cccc2c1Br` [A27, 3-Bromo-7-(2,4-dichloro-phenyl)-2-methyl-2H-indazole], the IC50 is 13.5 nM.

Test system in the next data set: not given
Assay: not given
Details: not given
Broadly, the melting point is the temperature, or range, at which the solid turns liquid. For the compound `Cl.Cn1cc2cccc(-c3ccc(Cl)cc3Cl)c2n1`, the melting point fell in the range of 133 to 147 °C.

`CC/C=C(\CCC)c1c2cccc(-c3ccc(Cl)cc3Cl)c2nn1C.Cl` registered a melting point of 148 to 150 °C.

For the compound `Cl.Cn1cc2ccnc(-c3ccc(Cl)cc3Cl)c2n1`, the melting point lay in the range of 190.9 to 195.5 °C.

The compound `CCCN(CCC)c1c2cccc(-c3ccc(Cl)cc3Cl)c2nn1C.Cl` had a melting point of 139 to 140 °C.

The compound `COc1ccc(-c2cccc3c(N(C)C)n(C)nc23)c(C)c1.Cl` showed a melting point of 166 to 167 °C.

For the compound `CNCc1c2cccc(-c3ccc(Cl)cc3Cl)c2nn1C.Cl`, the melting point lay within 211.1 to 213 °C.

The compound `Cc1cc(C)c(-c2cccc3c(N(C)C)n(C)nc23)c(C)c1.Cl` came in with a melting point of 169.9 to 171.9 °C.

Compound `CC(=O)N(C)Cc1c2cccc(-c3ccc(Cl)cc3Cl)c2nn1C.Cl` yielded a melting point of 146.2 to 147.8 °C.

Consider `Cl.Cn1nc2c(-c3ccc(Cl)cc3Cl)cccc2c1CNN`, for which the melting point is 172.5 to 176 °C.

Turning to `COC(=O)NCc1c2cccc(-c3ccc(Cl)cc3Cl)c2nn1C.Cl`, the melting point lay in the range of 146.3 to 148.6 °C.

Compound `Cn1nc2c(-c3ccc(Cl)cc3Cl)cccc2c1COC(N)=O` yielded a melting point of 184 to 185.5 °C.

For the compound `Cc1cc(C)c(-c2cccc3cn(C)nc23)c(C)c1` [A5, 2-Methyl-7-(2,4,6-trimethyl-phenyl)-2H-indazole], the melting point was 180 to 182 °C.

`Cc1cc(C#N)ccc1-c1cccc2cn(C)nc12` [A6, 3-Methyl-4-(2-methyl-2H-indazol-7-yl)-benzonitrile] came in with a melting point of 101 to 105 °C.

On to `C=Cc1c2cccc(-c3c(C)cc(C)cc3C)c2nn1C` [A18, 2-Methyl-7-(2,4,6-trimethyl-phenyl)-3-vinyl-2H-indazole], for which the melting point is 84.9 to 95.4 °C and 85 to 95 °C.

In turn, `C#Cc1c2cccc(-c3ccc(Cl)cc3Cl)c2nn1C` [A20, 7-(2,4-Dichloro-phenyl)-3-ethynyl-2-methyl-2H-indazole] had a melting point of 129.9 to 130.9 °C.

Regarding `CO/N=C\c1c2cccc(-c3ccc(Cl)cc3Cl)c2nn1C` [A22, 7-(2,4-Dichloro-phenyl)-2-methyl-2H-indazole-3-carbaldehyde O-methyl-oxime], the melting point was 159.2 to 160.5 °C.

The compound `Cn1nc2c(-c3ccc(Cl)cc3Cl)cccc2c1Br` [A27, 3-Bromo-7-(2,4-dichloro-phenyl)-2-methyl-2H-indazole] gave a melting point of 137 to 139 °C.

Take `Cn1nc2c(-c3ccc(Cl)cc3Cl)cccc2c1C#N` [A29, 7-(2,4-Dichloro-phenyl)-2-methyl-2H-indazole-3-carbonitrile]: the melting point lay within 137 to 139 °C.

The compound `Cn1nc2c(-c3ncc(Cl)cc3Cl)cccc2c1Br` [A32, 3-Bromo-7-(3,5-dichloro-pyridin-2-yl)-2-methyl-2H-indazole] gave a melting point of 154.5 to 156.2 °C.

With `Cn1cc2cncc(-c3ccc(Cl)cc3Cl)c2n1` [A34, 7-(2,4-Dichloro-phenyl)-2-methyl-2H-pyrazolo[4,3-c]pyridine], the melting point was in the range of 153.9 to 155.3 °C.

The compound `Cn1cc2nccc(-c3ccc(Cl)cc3Cl)c2n1` [A35, 7-(2,4-Dichloro-phenyl)-2-methyl-2H-pyrazolo[4,3-b]pyridine] yielded a melting point of 160.5 to 162.8 °C.

Compound `Cn1nc2c(-c3ccc(Cl)cc3Cl)cccc2c1CNC(=O)N1CCOCC1` [C11, Morpholine-4-carboxylic acid [7-(2,4-dichloro-phenyl)-2-methyl-2H-indazol-3-ylmethyl]-amide] had a melting point of 98.8 to 104.5 °C.

`CN(C)C(=O)NCc1c2cccc(-c3ccc(Cl)cc3Cl)c2nn1C` [C13, 3-[7-(2,4-Dichloro-phenyl)-2-methyl-2H-indazol-3-ylmethyl]-1,1-dimethyl-urea] came in with a melting point of 101.9 to 105.1 °C.

Compound `CN(C)C(=O)Nc1c2cccc(-c3ccc(Cl)cc3Cl)c2nn1C` [C15, 3-[7-(2,4-Dichloro-phenyl)-2-methyl-2H-indazol-3-yl]-1,1-dimethyl-urea] displayed a melting point of 123.3 to 126.3 °C.

On to `Cn1nc2c(-c3ccc(Cl)cc3Cl)cccc2c1S(N)(=O)=O` [D3, 7-(2,4-Dichloro-phenyl)-2-methyl-2H-indazole-3-sulfonic acid amide], for which the melting point fell in the range of 170.7 to 173.6 °C.

The compound `Cn1nc2c(-c3ccc(Cl)cc3Cl)cccc2c1S(=O)(=O)CCO` [D5, 2-[7-(2,4-Dichloro-phenyl)-2-methyl-2H-indazole-3-sulfonyl]-ethanol] came in with a melting point of 157.8 to 161.7 °C.

On to `Cn1nc2c(-c3ccc(Cl)cc3Cl)cccc2c1NS(C)(=O)=O` [D15, N-[7-(2,4-Dichloro-phenyl)-2-methyl-2H-indazol-3-yl]-methanesulfonamide], for which the melting point is 171.3 to 173.2 °C.

Take `Cn1nc2c(-c3ccc(Cl)cc3Cl)cccc2c1S(C)(=O)=O` [D-2, 3-Methanesulfonyl-2-methyl-7-(2,4-dichloro-phenyl)-2H-indazole]: the melting point is 182.1 to 183.4 °C.

`Cc1cc(C)c(-c2cccc3c(C(C)O)n(C)nc23)c(C)c1` (stereo not drawn) [E1, 1-[2-Methyl-7-(2,4,6-trimethyl-phenyl)-2H-indazol-3-yl]-ethanol] yielded a melting point of 246 to 247 °C.

Compound `COCc1c2cccc(-c3ccc(Cl)cc3Cl)c2nn1C` [E3, 7-(2,4-Dichloro-phenyl)-3-methoxymethyl-2-methyl-2H-indazole] showed a melting point of 119 to 120.9 °C.

For the compound `Cn1nc2c(-c3ccc(Cl)cc3Cl)cccc2c1CO` [E4], the melting point fell in the range of 197.3 to 201.2 °C.

`CC(=O)OCc1c2cccc(-c3ccc(Cl)cc3Cl)c2nn1C` [E5, Acetic acid [7-(2,4-dichloro-phenyl)-2-methyl-2H-indazol-3-yl]-methyl ester] displayed a melting point of 131.7 to 135.2 °C.

`CN(C)C(=O)OCc1c2cccc(-c3ccc(Cl)cc3Cl)c2nn1C` [E6, Dimethyl-carbamic acid 7-(2,4-dichloro-phenyl)-2-methyl-2H-indazol-3-ylmethyl ester] registered a melting point of 125.2 to 128 °C.

For a further data set, the target named is T2, GABAA α1β2γ2 (Homo sapiens, UniProt P14867+P18507+P47870).
T2 construct: expressed in transfected cells; host or cells: HEK293
The data set is described as follows: 35S-TBPS binding assay (competition), HEK293 membranes with GABAA α1β2γ2 construct. The settings on record: 35S-TBPS (5 nM) competition, GABA 1 μM, 2 hours at room temperature, read-out: pIC50 α1β2γ2 (converted). As for the experimental part: as §1, §2, §3
`Cc1c2cccc(-c3ccc(Cl)cc3Cl)c2nn1C` [A14, 7-(2,4-Dichloro-phenyl)-2,3-dimethyl-2H-indazole; hydrochloride]: the IC50 was 295 nM.

In the case of `C=Cc1c2cccc(-c3ccc(Cl)cc3Cl)c2nn1C` [A17, 7-(2,4-Dichloro-phenyl)-2-methyl-3-vinyl-2H-indazole], the IC50 was 1170 nM.

Turning to `Cn1nc2c(-c3ccc(Cl)cc3Cl)cccc2c1Br` [A27, 3-Bromo-7-(2,4-dichloro-phenyl)-2-methyl-2H-indazole], the IC50 was 575 nM.
